pEC50, pIC50: −log10 of the molar value. Like-named read-outs stand apart in the source and are kept apart here. Numbered stars: 1 amine (or outer) side, 2 acyl side, 3 side chain; on linkers, the order of the positions; unused ones are H or OH. Bridge positions count the residues as written; N and C are the ends. Side chains are listed from the residue outwards. Peptide text beside a SMILES is read from it. * marks the point of attachment. C20 diacid = O=C(O)CCCCCCCCCCCCCCCCCCC(=O)*; γGlu = O=C(O)[C@H](CCC(=O)[*:2])N[*:1]; AEEA = NCCOCCOCC(=O)O
How the values were obtained:
[1] = target: T1, human amylin receptor (amylin 3(a) receptor: human calcitonin receptor + RAMP-3) (Homo sapiens, UniProt O60896+P30988); assay: Assay (II)a functional assay, human amylin receptor (CRE luciferase, BHK cells); type: cell-based; details: for pEC50: functional assay, human amylin receptor, read-out: hAmylin-R funct. EC50
T1 construct: expressed in transfected cells
T1 sequence (P30988 25-474): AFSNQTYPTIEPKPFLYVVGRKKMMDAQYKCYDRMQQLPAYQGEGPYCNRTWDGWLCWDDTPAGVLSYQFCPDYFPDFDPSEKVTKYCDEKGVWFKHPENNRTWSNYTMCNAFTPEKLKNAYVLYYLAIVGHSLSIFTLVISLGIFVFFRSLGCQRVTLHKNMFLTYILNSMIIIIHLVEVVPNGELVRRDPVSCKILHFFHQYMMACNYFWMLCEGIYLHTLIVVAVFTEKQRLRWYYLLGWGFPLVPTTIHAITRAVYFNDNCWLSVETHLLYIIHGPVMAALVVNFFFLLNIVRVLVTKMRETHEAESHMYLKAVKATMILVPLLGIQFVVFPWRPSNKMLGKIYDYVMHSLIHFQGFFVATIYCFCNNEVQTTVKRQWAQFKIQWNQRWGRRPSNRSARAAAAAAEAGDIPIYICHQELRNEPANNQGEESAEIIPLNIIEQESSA
T1 sequence (O60896 24-148 partner): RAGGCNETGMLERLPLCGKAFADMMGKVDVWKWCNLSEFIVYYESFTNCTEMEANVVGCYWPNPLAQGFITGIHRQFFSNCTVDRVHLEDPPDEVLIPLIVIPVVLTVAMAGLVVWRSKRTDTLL

[2] = target: T2, human calcitonin receptor (Homo sapiens, UniProt P30988); assay: Assay (II)a functional assay, human calcitonin receptor (CRE luciferase, BHK cells);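 note: luminescence from a CRE-driven luciferase reporter, read by single photon counting after cells were exposed to test samples for 3 h at 37 °C under 5% CO2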; type: cell-based; details: read-out: hCTR funct. EC50
T2 construct: expressed in transfected cells
T2 sequence (P30988 25-474): T1 sequence (P30988 25-474)
Procedure: Assay (II)—Functional Assays
Consequently, transcription is activated by promoters containing multiple copies of the cAMP response element (CRE).
The cell line was further transfected with RAMP-3, using standard methods.
After incubation overnight at 37° C. and 5% CO2, the growth medium was replaced by 50 μl/well assay medium (DMEM (without phenol red), Glutamax™, 10% FBS, and 10 mM Hepes, pH 7.4). Further, 50 μl/well of standard or sample in assay buffer were added. After 3 hours incubation at 37° C. and 5% CO2, the assay medium with standard or sample were removed and replaced by 100 μl/well PBS. Further, 100 μl/well LucLite™ was added. The plates were sealed and incubated at room temperature for 30 minutes. Finally, luminescence was measured on a TopCounter (Packard) in SPC (single photon counting) mode.

human amylin receptor = target: T3, human amylin receptor (Homo sapiens, UniProt O60896+P30988); assay: Assay (V) binding to the human amylin receptor (SPA, 125I-rat amylin); details: for pIC50: read-out: hAmylin-R bind IC50; for Ratio hCT/hAmylin binding: human binding ratio, included for comparison
T3 construct: expressed in transfected cells
T3 sequence (P30988 25-474): T1 sequence (P30988 25-474)
T3 sequence (O60896 24-148 partner): T1 sequence (O60896 24-148 partner)
Procedure, shortened: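 IC50, taken as receptor affinity, came from one-site binding competition analysis of scintillation proximity counts. Amylin 3(a)/CRE-luc cell membranes (35 ng/μL final) were mixed with SPA beads (0.05 mg/well) in 50 mM Hepes pH 7.4 containing CaCl2, MgCl2, 0.1% OA and 0.02% Tween20.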

rat amylin receptor = target: T4, rat amylin receptor (Rattus norvegicus, UniProt P32214+Q9JJ73); assay: Assay (VI) binding to the rat amylin receptor; details: rCTR bind IC50 divided by rAmylin-R bind IC50
T4 construct: expressed in transfected cells; host or cells: BHK tk'ts 13 (transient, FuGENE 6), membranes
T4 sequence (P32214 25-479 isoform P32214-2 limits assumed): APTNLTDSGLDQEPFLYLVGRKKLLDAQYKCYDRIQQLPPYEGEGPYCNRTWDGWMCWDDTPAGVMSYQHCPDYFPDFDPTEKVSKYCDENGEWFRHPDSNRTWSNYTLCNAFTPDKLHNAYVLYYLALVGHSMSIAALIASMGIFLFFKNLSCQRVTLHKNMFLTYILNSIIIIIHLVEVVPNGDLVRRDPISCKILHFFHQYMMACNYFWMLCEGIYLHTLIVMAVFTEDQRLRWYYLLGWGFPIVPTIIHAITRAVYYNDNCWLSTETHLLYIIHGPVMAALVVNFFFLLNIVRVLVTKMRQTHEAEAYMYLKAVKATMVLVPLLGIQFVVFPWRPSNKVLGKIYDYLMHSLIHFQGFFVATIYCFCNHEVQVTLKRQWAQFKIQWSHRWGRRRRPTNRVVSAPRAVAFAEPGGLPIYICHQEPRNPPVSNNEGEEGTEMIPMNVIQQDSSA
T4 sequence (Q9JJ73 23-147 partner): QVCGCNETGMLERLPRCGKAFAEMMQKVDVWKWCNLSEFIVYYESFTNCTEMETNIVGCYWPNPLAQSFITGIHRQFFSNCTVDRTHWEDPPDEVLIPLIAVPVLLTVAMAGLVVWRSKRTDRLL
Procedure: Assay (VI)—Determination of the Binding to the Rat Amylin Receptor
The assay was performed as described above (Assay (V)—Determination of binding to the human amylin receptor) with the exception that we used membranes prepared from BHK tk'ts 13 cells that were transiently transfected with the rat calcitonin receptor rat RAMP 3 at an equimolar ratio […]. The BHK tk'ts 13 cells were transiently transfected with rat calcitonin receptor using FuGENE® 6 (Roche), according to the manufacturer's recommendations. Cells were grown in DMEM with 10% FBS and 1% Pen/Strep. Approximately 48 hours after transfection, the cells were harvested and membranes were prepared.

[3] = target: T2, human calcitonin receptor; assay: Assay (VII) binding to the human calcitonin receptor (SPA, 125I-Calcitonin); details: read-out: hCTR bind IC50;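 note: cell membranes coupled to SPA beads, competitive displacement read by scintillation counting, IC50 derived from a one-site competition fit as a measure of receptor affinity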
[4] = Table 6, human functional selectivity (hCTR EC50 / hAmylin-R EC50)
[5] = human amylin receptor membranes, SPA

Compound | Ratio hCT/hAmylin funct. [1, 4] | pEC50 [1] | Ratio hCT/hAmylin funct. ([1]; hCTR funct. EC50 divided by hAmylin-R funct. EC50) | pEC50 [2] | pIC50 (human amylin receptor; binding to human amylin receptor) | pIC50 (human amylin receptor; [5]) | Ratio hCT/hAmylin binding (human amylin receptor) | Ratio rCT/rAmylin binding (rat amylin receptor) | pIC50 [3]
CC(C)C[C@H](NC(=O)[C@H](CCCNC(=N)N)NC(=O)[C@H](CCC(N)=O)NC(=O)[C@@H](NC(=O)[C@H](C)NC(=O)[C@@H]1CSSC[C@H](NC(=O)[C@H](CCCCN)NC(=O)CC[C@H](NC(=O)CCCCCCCCCCCCCCCCCCC(=O)O)C(=O)O)C(=O)N[C@@H](CC(N)=O)C(=O)N[C@@H]([C@@H](C)O)C(=O)N[C@@H](C)C(=O)N[C@@H]([C@@H](C)O)C(=O)N1)[C@@H](C)O)C(=O)N[C@@H](C)C(=O)N[C@@H](CCC(=O)O)C(=O)N[C@@H](Cc1ccccc1)C(=O)N[C@@H](CC(C)C)C(=O)N[C@@H](CCCNC(=N)N)C(=O)N[C@@H](Cc1c[nH]cn1)C(=O)N[C@@H](CO)C(=O)N[C@@H](CO)C(=O)N1CCC[C@H]1C(=O)N[C@@H](CC(N)=O)C(=O)N[C@@H](Cc1ccccc1)C(=O)NCC(=O)N[C@@H](C)C(=O)N1CCC[C@H]1C(=O)N[C@@H](CC(C)C)C(=O)N[C@@H](CO)C(=O)N[C@@H](CO)C(=O)N[C@H](C(=O)N[C@@H](CC(N)=O)C(=O)N[C@H](C(=O)NCC(=O)N[C@@H](CO)C(=O)N[C@@H](CC(N)=O)C(=O)N[C@H](C(=O)N1CCC[C@H]1C(N)=O)[C@@H](C)O)C(C)C)[C@@H](C)O [Example 5] ({C20 diacid-γGlu}-KCNTATCATQRLAEFLRHSSPNFGAPLSSTNVGSNTP-NH2; disulfide 2-7) | 1.0 | 9.79 | 1.0 | 9.80 | 9.43 | 9.43 | 1.4 | 3.6 | 9.27
CC[C@H](C)[C@H](NC(=O)[C@H](C)NC(=O)CNC(=O)[C@H](Cc1ccccc1)NC(=O)[C@H](CC(N)=O)NC(=O)[C@@H]1CCCN1C(=O)[C@H](CO)NC(=O)[C@H](CO)NC(=O)[C@H](Cc1c[nH]cn1)NC(=O)[C@H](CCCNC(=N)N)NC(=O)[C@H](CC(C)C)NC(=O)[C@H](Cc1ccccc1)NC(=O)[C@H](CCC(=O)O)NC(=O)[C@H](C)NC(=O)[C@H](CC(C)C)NC(=O)[C@H](CCCNC(=N)N)NC(=O)[C@H](CCC(N)=O)NC(=O)[C@@H](NC(=O)[C@H](C)NC(=O)[C@@H]1CSSC[C@H](NC(=O)[C@@H](N)CCCCNC(=O)CC[C@H](NC(=O)CCCCCCCCCCCCCCCCCCC(=O)O)C(=O)O)C(=O)N[C@@H](CC(N)=O)C(=O)N[C@@H]([C@@H](C)O)C(=O)N[C@@H](C)C(=O)N[C@@H]([C@@H](C)O)C(=O)N1)[C@@H](C)O)C(=O)N1CCC[C@H]1C(=O)N[C@@H](CO)C(=O)N[C@@H](CO)C(=O)N[C@H](C(=O)N[C@@H](CC(N)=O)C(=O)N[C@H](C(=O)NCC(=O)N[C@@H](CO)C(=O)N[C@@H](CC(N)=O)C(=O)N[C@H](C(=O)N1CCC[C@H]1C(N)=O)[C@@H](C)O)C(C)C)[C@@H](C)O [Example 12] (H-K([γGlu-C20 diacid])CNTATCATQRLAEFLRHSSPNFGAIPSSTNVGSNTP-NH2; disulfide 2-7) | 1.8 | 10.00 | – | 9.73 | – | 9.85 | 2.5 | 5.0 | 9.45
CC[C@H](C)[C@H](NC(=O)[C@H](C)NC(=O)CNC(=O)[C@H](Cc1ccccc1)NC(=O)[C@H](CC(N)=O)NC(=O)[C@@H]1CCCN1C(=O)[C@H](CO)NC(=O)[C@H](CO)NC(=O)[C@H](Cc1c[nH]cn1)NC(=O)[C@H](CCCNC(=N)N)NC(=O)[C@H](CC(C)C)NC(=O)[C@H](Cc1ccccc1)NC(=O)[C@H](CCC(=O)O)NC(=O)[C@H](C)NC(=O)[C@H](CC(C)C)NC(=O)[C@H](CCCNC(=N)N)NC(=O)[C@H](CCC(N)=O)NC(=O)[C@@H](NC(=O)[C@H](C)NC(=O)[C@@H]1CSSC[C@H](NC(=O)[C@H](CCCCN)NC(=O)COCCOCCNC(=O)COCCOCCNC(=O)CC[C@H](NC(=O)CCCCCCCCCCCCCCCCCCC(=O)O)C(=O)O)C(=O)N[C@@H](CC(N)=O)C(=O)N[C@@H]([C@@H](C)O)C(=O)N[C@@H](C)C(=O)N[C@@H]([C@@H](C)O)C(=O)N1)[C@@H](C)O)C(=O)N1CCC[C@H]1C(=O)N[C@@H](CO)C(=O)N[C@@H](CO)C(=O)N[C@H](C(=O)N[C@@H](CC(N)=O)C(=O)N[C@H](C(=O)NCC(=O)N[C@@H](CO)C(=O)N[C@@H](CC(N)=O)C(=O)N[C@H](C(=O)N1CCC[C@H]1C(N)=O)[C@@H](C)O)C(C)C)[C@@H](C)O [Example 20] ({C20 diacid-γGlu-AEEA-AEEA}-KCNTATCATQRLAEFLRHSSPNFGAIPSSTNVGSNTP-NH2; disulfide 2-7) | 3.6 | – | – | – | – | – | 3.6 | 6.4 | –
CC[C@H](C)[C@H](NC(=O)[C@H](C)NC(=O)CNC(=O)[C@H](Cc1ccccc1)NC(=O)[C@H](CC(N)=O)NC(=O)[C@@H]1CCCN1C(=O)[C@H](CO)NC(=O)[C@H](CO)NC(=O)[C@H](Cc1c[nH]cn1)NC(=O)[C@H](CCCNC(=N)N)NC(=O)[C@H](CC(C)C)NC(=O)[C@H](Cc1ccccc1)NC(=O)[C@H](Cc1c[nH]cn1)NC(=O)[C@H](C)NC(=O)[C@H](CC(C)C)NC(=O)[C@H](CCCNC(=N)N)NC(=O)[C@H](CCC(N)=O)NC(=O)[C@@H](NC(=O)[C@H](C)NC(=O)[C@@H]1CSSC[C@H](NC(=O)[C@@H](N)CCCCNC(=O)CC[C@H](NC(=O)CCCCCCCCCCCCCCCCCCC(=O)O)C(=O)O)C(=O)N[C@@H](CC(N)=O)C(=O)N[C@@H]([C@@H](C)O)C(=O)N[C@@H](C)C(=O)N[C@@H]([C@@H](C)O)C(=O)N1)[C@@H](C)O)C(=O)N1CCC[C@H]1C(=O)N[C@@H](CO)C(=O)N[C@@H](CO)C(=O)N[C@H](C(=O)N[C@@H](CC(N)=O)C(=O)N[C@H](C(=O)NCC(=O)N1CCC[C@H]1C(=O)N[C@@H](CC(N)=O)C(=O)N[C@H](C(=O)N1CCC[C@H]1C(N)=O)[C@@H](C)O)C(C)C)[C@@H](C)O [Example 115] (H-K([γGlu-C20 diacid])CNTATCATQRLAHFLRHSSPNFGAIPSSTNVGPNTP-NH2; disulfide 2-7 (inferred); N-terminus and C-terminus assumed) | 0.8 | – | – | – | – | – | 1.2 | 3.0 | –

From patent US8575091B1, “Amylin analogues and pharmaceutical compositions thereof” (Novo Nordisk A/S, priority 2012, dated 2013)
